Results published in ChEMBL document CHEMBL5260810, “Inhibition of bromodomain-containing protein 9 for the prevention of epigenetically-defined drug resistance” (Bioorg Med Chem Lett, 2017).
Activity calls are given as the source filed them.

How the values were obtained:
Assay type in all cases: functional, cell-based
COR-L47 = assay: Cytotoxicity against human COR-L47 cells measured after 3 days; settings: COR-L47, 72 h
PEO1 = assay: Cytotoxicity against human PEO1 cells measured after 3 days; settings: PEO1, 72 h
[1] = Cytotoxicity against human COV413A cells measured after 3 days; settings: 72 h
SKM-1 = assay: Cytotoxicity against human SKM-1 cells measured after 3 days; settings: SKM-1, 72 h
[2] = Cytotoxicity against human LS174T-HM7 cells measured after 3 days; settings: LS174T-HM7, 72 h
K562 = assay: Cytotoxicity against human K562 cells measured after 3 days; settings: K562, 72 h
[3] = Cytotoxicity against human NCE-G 124 cells measured after 3 days; settings: NCE-G 124, 72 h
NOMO-1 = assay: Cytotoxicity against human NOMO-1 cells measured after 3 days; settings: NOMO-1, 72 h
[4] = Cytotoxicity against human PMF-ko14 cells measured after 3 days; settings: PMF-ko14, 72 h
SW1573 = assay: Cytotoxicity against human SW1573 cells measured after 3 days; settings: SW1573, 72 h
SW626 = assay: Cytotoxicity against human SW626 cells measured after 3 days; settings: SW626, 72 h
Hep 3B2 [5] = assay: Cytotoxicity against human Hep 3B2.1-7 cells measured after 3 days; settings: Hep3B, 72 h
[6] = Cytotoxicity against human OCI-M1 cells measured after 3 days; settings: OCI-M1, 72 h
CAL-12T = assay: Cytotoxicity against human CAL-12T cells measured after 3 days; settings: 72 h
AU565 = assay: Cytotoxicity against human AU565 cells measured after 3 days; settings: AU565, 72 h
[7] = Cytotoxicity against human KMS-34 cells measured after 3 days; settings: KMS-34, 72 h
KG-1 = assay: Cytotoxicity against human KG-1 cells measured after 3 days; settings: KG-1, 72 h
[8] = Cytotoxicity against human NCE-G 118 cells measured after 3 days; settings: NCE-G 118, 72 h
MPC-11 = assay: Cytotoxicity against mouse MPC-11 cells measured after 8 days; settings: MPC-11, 192 h
[9] = Cytotoxicity against human SNU-484 cells measured after 8 days; settings: SNU-484, 192 h
[10] = Cytotoxicity against human ONCO-DG-1 cells measured after 8 days; settings: ONCO-DG-1, 192 h
KYSE-30 = assay: Cytotoxicity against human KYSE-30 cells measured after 8 days; settings: KYSE-30, 192 h
Panc02 = assay: Cytotoxicity against mouse Panc02 cells measured after 8 days; settings: Panc02, 192 h
Hep 3B2 [11] = assay: Cytotoxicity against human Hep 3B2.1-7 cells measured after 8 days; settings: Hep3B, 192 h
[12] = Cytotoxicity against human HCC60 cells measured after 8 days; settings: HCC60, 192 h
Hs 766 = assay: Cytotoxicity against human Hs 766 cells measured after 8 days; settings: Hs 766, 192 h
EMT6 = assay: Cytotoxicity against mouse EMT6 Luciferase cells measured after 8 days; settings: EMT6, 192 h
BXPC-3 = assay: Antiproliferative activity against human BxPC-3 cells assessed as reduction in colony formation up to 20 uM supplemented with fresh medium containing compound every 3 days for 9 days by MTT staining based clonogenic assay; settings: time 9.0 day
SNB-19 = assay: Cytotoxicity against human SNB-19 cells measured after 8 days; settings: SNB-19, 192 h
[13] = Cytotoxicity against human Fu97 cells measured after 8 days; settings: Fu97, 192 h
[14] = Cytotoxicity against human PMF-ko14 cells measured after 8 days; settings: PMF-ko14, 192 h
CT26.WT = assay: Cytotoxicity against mouse CT26.WT cells measured after 8 days; settings: 192 h
KYSE-180 = assay: Cytotoxicity against human KYSE-180 cells measured after 8 days; settings: KYSE-180, 192 h
[15] = Cytotoxicity against human OVCA 420 cells measured after 8 days; settings: OVCA 420, 192 h
[16] = Cytotoxicity against human DEOC-1 cells measured after 8 days; settings: DEOC-1, 192 h
OVCAR-8 = assay: Cytotoxicity against human OVCAR-8 cells measured after 8 days; settings: OVCAR-8, 192 h
[17] = Cytotoxicity against human SM1 cells measured after 8 days; settings: SM1, 192 h
[18] = Cytotoxicity against human KPP14449 cells measured after 8 days; settings: KPP14449, 192 h
SK-MEL3 = assay: Cytotoxicity against human SK-MEL3 cells measured after 8 days; settings: SK-MEL3, 192 h
NCI-H889 = assay: Cytotoxicity against human NCI-H889 cells measured after 8 days; settings: NCI-H889, 192 h
[19] = Cytotoxicity against human 4498-16820 Mel-BR1 cells measured after 8 days; settings: 4498-16820 Mel-BR1, 192 h
SK-MEL-24 = assay: Cytotoxicity against human SK-MEL-24 cells measured after 8 days; settings: SK-MEL-24, 192 h
MC-38 = assay: Cytotoxicity against mouse MC-38 cells measured after 8 days; settings: MC-38, 192 h
[20] = Cytotoxicity against human RKN cells measured after 8 days; settings: 192 h
[21] = Cytotoxicity against human Panc 02.03 cells measured after 8 days; settings: Panc 02.03, 192 h
[22] = Cytotoxicity against human KLM-1 cells measured after 8 days; settings: KLM1, 192 h
[23] = Cytotoxicity against human NCE-G 22 cells measured after 8 days; settings: NCE-G 22, 192 h
[24] = Cytotoxicity against human COLO 853 cells measured after 8 days; settings: COLO 853, 192 h
[25] = Cytotoxicity against mouse LTPA cells measured after 8 days; settings: 192 h
[26] = Cytotoxicity against human KMS-34 cells measured after 8 days; settings: KMS-34, 192 h
A20 = assay: Cytotoxicity against mouse A20 cells measured after 8 days; settings: A20, 192 h
RVH-421 = assay: Cytotoxicity against human RVH-421 cells measured after 8 days; settings: RVH-421, 192 h
KU812 cell line = assay: Cytotoxicity against human KU812 cell line measured after 8 days; settings: KU812, 192 h
COLO 201 = assay: Cytotoxicity against human COLO201 cells measured after 8 days; settings: COLO 201, 192 h
SK-N-DZ = assay: Cytotoxicity against human SK-N-DZ cells measured after 8 days; settings: 192 h
[27] = Cytotoxicity against human HLF cells measured after 8 days; settings: 192 h
KM12 = assay: Cytotoxicity against human KM12 cells measured after 8 days; settings: KM12, 192 h
[28] = Cytotoxicity against human BICR 10 cells measured after 8 days; settings: BICR 10, 192 h
[29] = Cytotoxicity against human SUIT-2 cells measured after 8 days; settings: SUIT-2, 192 h

C/C=C/Cn1cc(-c2cc(OC)c(C(=O)N3CCOCC3)cc2OC)c2cc(C)[nH]c2c1=O
5 µM: IC50 (COR-L47) | IC50 (PEO1) | IC50 [1] | IC50 (SKM-1) | IC50 [2] | IC50 (K562) | IC50 [3] | IC50 (NOMO-1) | IC50 [4] | IC50 (SW1573) | IC50 (SW626) | IC50 (Hep 3B2 [5]) | IC50 [6] | IC50 (CAL-12T) | IC50 (AU565) | IC50 [7] | IC50 (KG-1) | IC50 [8]

C/C=C/Cn1cc(-c2ccc(C(C)(C)O)cc2OC)c2cc[nH]c2c1=O
inactive: Activity (BXPC-3)
20 µM: IC50 [9] | IC50 [10] | IC50 (KYSE-30) | IC50 (Panc02) | IC50 (Hep 3B2 [11]) | IC50 [12] | IC50 (Hs 766) | IC50 (EMT6) | IC50 (SNB-19) | IC50 [13] | IC50 [14] | IC50 (CT26.WT) | IC50 (KYSE-180) | IC50 [15] | IC50 [16] | IC50 (OVCAR-8) | IC50 [18] | IC50 (SK-MEL3) | IC50 (NCI-H889) | IC50 (SK-MEL-24) | IC50 (MC-38) | IC50 [20] | IC50 [21] | IC50 [22] | IC50 [23] | IC50 [24] | IC50 [25] | IC50 [26] | IC50 (RVH-421) | IC50 (KU812 cell line) | IC50 (COLO 201) | IC50 [27] | IC50 (KM12) | IC50 [28] | IC50 [29]
15.5 µM: IC50 [19]
16.5 µM: IC50 (MPC-11)
3.43 µM: IC50 (A20)
18.6 µM: IC50 (SK-N-DZ)
11.2 µM: IC50 [17]

C/C=C/Cn1cc(-c2ccc(C(=O)N3CCOCC3)cc2)c2cc[nH]c2c1=O
15.3 µM: IC50 [26]
10.7 µM: IC50 (MPC-11)
7 µM: IC50 (A20)
17.9 µM: IC50 [17]
20 µM: IC50 [9] | IC50 [10] | IC50 (KYSE-30) | IC50 (Panc02) | IC50 (Hep 3B2 [11]) | IC50 [12] | IC50 (Hs 766) | IC50 (EMT6) | IC50 (SNB-19) | IC50 [13] | IC50 [14] | IC50 (CT26.WT) | IC50 (KYSE-180) | IC50 [15] | IC50 [16] | IC50 (OVCAR-8) | IC50 [18] | IC50 (SK-MEL3) | IC50 (NCI-H889) | IC50 [19] | IC50 (SK-MEL-24) | IC50 (MC-38) | IC50 [20] | IC50 [21] | IC50 [22] | IC50 [23] | IC50 [24] | IC50 [25] | IC50 (RVH-421) | IC50 (KU812 cell line) | IC50 (COLO 201) | IC50 (SK-N-DZ) | IC50 [27] | IC50 (KM12) | IC50 [28] | IC50 [29]
